These are literature values, as cited in patent US4666715A, “Antibiotic AM-5344-A2 substance and process for the production thereof” (Kitasato Institute, priority 1980, dated 1987).

For series [1] the following is noted: known antibiotics, literature.
For a further series, the system named is Gram-positive bacterium. The conditions noted are these: known antibiotics, literature.
For series [2] the following is noted: known antibiotics, literature. The source holds these as a separate data set.

For Cerulomycin, the “acidity (neutral)” value in series [1] is recorded as “neutral”. In the series on Gram-positive bacterium, the “effective to Gram-positive bacteria” value was “effective”.
For the molecule Mekemycin, the “acidity (neutral)” value in series [1] was “neutral”. The “effective to Gram-positive bacteria” value in the series with Gram-positive bacterium is listed as “effective”.
As for `COC(=O)c1cc2cc3cc4cc(CC(=O)O)c(C(=O)/C=C(\O)c5ccccc5O)c(OC)c4c(OC)c3c(O)c2c(=O)o1` [Thermorubin A], the “acidity (neutral)” value in series [1] is recorded as “neutral”. In addition, the “effective to Gram-positive bacteria” value with Gram-positive bacterium was “effective”.
For `CO[C@H]1[C@@H](O)[C@@H](C)O[C@H](O[C@H]2[C@H](Oc3cccc4c(O)c5c(=O)oc6ccc(C)c7c(=O)oc(c34)c5c67)O[C@H](C)[C@H](O)[C@@H]2O)[C@@H]1O` [Chartreusin], in series [1], the “acidity (neutral)” value is “neutral”. Also, the “effective to Gram-positive bacteria” value with Gram-positive bacterium was “effective”. For the same molecule, the fat solubility entry in series [2] was “fat-soluble”.
